The source of these data is the supplement of paper PMC7108870.

SMILES strings stand for the structures.

In test [1] the test system is HEK293sieSTAT3(Y640F). As to the kind of experiment: drug sensitivity score (DSS), cytotoxicity CellTox Green (DSS (dimensionless)); higher = more cytotoxic; extreme values may be limits of the assay. The note with it: 72 h; STAT3 variant: Y640F (constitutively active). In outline: (§1)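 HEK293 cells carrying a STAT3-dependent luciferase reporter and overexpressing wild-type or mutant STAT3 (20 μl at 100,000 cells/ml) were added to compounds acoustically pre-plated at 5 concentrations in 10-fold dilutions in 384-well plates. After 72 hours at 37°C and 5% CO2, CellTox Green fluorescence (485/520 nm) and then CellTiter-Glo luminescence were read on a PHERAstar FS. Values were normalised to negative and positive control wells, and a drug sensitivity score based on dose-response curve area was computed in Breeze. Each value comes from one representative of two experiments.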

Test [2] has as its system HEK293sieSTAT3(wt). The description is as above. The note with it: 72 h; STAT3 variant: wild type. The procedure, abridged:
as §1

In test [3] the test system is HEK293sieSTAT3(Y640F). As to the kind of experiment: drug sensitivity score (DSS), viability CellTiter-Glo (DSS (dimensionless)); higher = more growth inhibition; extreme values may be limits of the assay. The note with it: 72 h; STAT3 variant: Y640F (constitutively active). In outline: as §1
For orientation: In ATP-based viability assays light output follows the ATP content of the culture.

For test [4], the system named is HEK293sieSTAT3(wt). The description is as above. The note with it: 72 h; STAT3 variant: wild type. The procedure, abridged: as §1

As for `COC(=O)N[C@@H](C)CNc1nccc(-c2cn(C(C)C)nc2-c2cc(Cl)cc(NS(C)(=O)=O)c2F)n1` [Encorafenib] (top concentration tested 1000 nM), the drug sensitivity score turned out to be 0 in the test with HEK293sieSTAT3(Y640F) [1], 0 in the test with HEK293sieSTAT3(wt) [2], 0.92 in the test on HEK293sieSTAT3(Y640F) [3] and 3.05 in the test on HEK293sieSTAT3(wt) [4].

For the compound `Nc1ccccc1NC(=O)c1ccc(CNC(=O)OCc2cccnc2)cc1` [Entinostat] (top concentration tested 10000 nM), the drug sensitivity score in the test with HEK293sieSTAT3(Y640F) [1] came to 0.1; with HEK293sieSTAT3(wt) [2] it was 1.29; in the test with HEK293sieSTAT3(Y640F) [3], 8.12; in the test on HEK293sieSTAT3(wt) [4], 8.98.

In the case of `c1cn2cc(-c3ccc4cn[nH]c4c3)nc(Nc3ccc(N4CCOCC4)cc3)c2n1` [Entospletinib] (top concentration tested 5000 nM), the drug sensitivity score in the test with HEK293sieSTAT3(Y640F) [1], in the test with HEK293sieSTAT3(wt) [2], with HEK293sieSTAT3(Y640F) [3] and with HEK293sieSTAT3(wt) [4] was 0 each time.

For the compound `CNC(=O)c1ccc(N2C(=S)N(c3ccc(C#N)c(C(F)(F)F)c3)C(=O)C2(C)C)cc1F` [Enzalutamide] (top concentration tested 10000 nM), the drug sensitivity score in the test with HEK293sieSTAT3(Y640F) [1] worked out at 0; in the test with HEK293sieSTAT3(wt) [2], 0; with HEK293sieSTAT3(Y640F) [3], 0.6; in the test on HEK293sieSTAT3(wt) [4] it was 0.

With `Cn1cc(C2=C(c3cn(C4CCN(Cc5ccccn5)CC4)c4ccccc34)C(=O)NC2=O)c2ccccc21` [Enzastaurin] (top concentration tested 10000 nM), the drug sensitivity score was 0 in the test with HEK293sieSTAT3(Y640F) [1], 0 in the test on HEK293sieSTAT3(wt) [2], 1.73 with HEK293sieSTAT3(Y640F) [3] and 1.34 in the test with HEK293sieSTAT3(wt) [4].

For the compound `NS(=O)(=O)NCCNc1nonc1/C(=N/O)Nc1ccc(F)c(Br)c1` [Epacadostat] (top concentration tested 10000 nM), the drug sensitivity score turned out to be 0 in the test on HEK293sieSTAT3(Y640F) [1], 0 with HEK293sieSTAT3(wt) [2], 1.76 in the test on HEK293sieSTAT3(Y640F) [3] and 0.37 with HEK293sieSTAT3(wt) [4].

Take `C#Cc1cccc(Nc2ncnc3cc(OCCOC)c(OCCOC)cc23)c1` [Erlotinib] (top concentration tested 10000 nM): the drug sensitivity score in the test on HEK293sieSTAT3(Y640F) [1] was determined as 0; in the test on HEK293sieSTAT3(wt) [2], 0; in the test with HEK293sieSTAT3(Y640F) [3], 3.21; in the test with HEK293sieSTAT3(wt) [4], 2.99.

Consider `C[C@]12CC[C@@H]3c4ccc(OC(=O)N(CCCl)CCCl)cc4CC[C@H]3[C@@H]1CC[C@@H]2O` [Estramustine] (top concentration tested 10000 nM), for which the drug sensitivity score in the test with HEK293sieSTAT3(Y640F) [1] worked out at 0; in the test on HEK293sieSTAT3(wt) [2] it was 0.3; in the test on HEK293sieSTAT3(Y640F) [3], 0.65; with HEK293sieSTAT3(wt) [4], 0.

As for `COc1cc([C@@H]2c3cc4c(cc3[C@@H](O[C@@H]3O[C@@H]5CO[C@@H](C)O[C@H]5[C@H](O)[C@H]3O)[C@H]3COC(=O)[C@H]23)OCO4)cc(OC)c1O` [Etoposide] (top concentration tested 10000 nM), the drug sensitivity score in the test on HEK293sieSTAT3(Y640F) [1] turned out to be 3.46; with HEK293sieSTAT3(wt) [2], 7.94; with HEK293sieSTAT3(Y640F) [3], 17.6; in the test on HEK293sieSTAT3(wt) [4], 20.

`CO[C@H]1C[C@@H]2CC[C@@H](C)[C@@](O)(O2)C(=O)C(=O)N2CCCC[C@H]2C(=O)O[C@H]([C@H](C)C[C@@H]2CC[C@@H](OCCO)[C@H](OC)C2)CC(=O)[C@H](C)/C=C(\C)[C@@H](O)[C@@H](OC)C(=O)[C@H](C)C[C@H](C)/C=C/C=C/C=C/1C` [Everolimus] (top concentration tested 100 nM): the drug sensitivity score turned out to be 0 in the test on HEK293sieSTAT3(Y640F) [1], 0 in the test with HEK293sieSTAT3(wt) [2], 8.23 with HEK293sieSTAT3(Y640F) [3] and 11.3 in the test with HEK293sieSTAT3(wt) [4].

Consider `C=C1C[C@@H]2[C@H](CC[C@]3(C)C(=O)CC[C@@H]23)[C@@]2(C)C=CC(=O)C=C12` [Exemestane] (top concentration tested 10000 nM), for which the drug sensitivity score in the test with HEK293sieSTAT3(Y640F) [1] was determined as 0; in the test on HEK293sieSTAT3(wt) [2], 0; in the test on HEK293sieSTAT3(Y640F) [3], 3.39; with HEK293sieSTAT3(wt) [4], 3.65.

As to `Cc1nc(C(=O)NCC(=O)O)c(O)c2ccc(Oc3ccccc3)cc12` [FG-4592] (top concentration tested 10000 nM), the drug sensitivity score in the test with HEK293sieSTAT3(Y640F) [1] came to 0; with HEK293sieSTAT3(wt) [2], 0; in the test with HEK293sieSTAT3(Y640F) [3] it was 1.3; with HEK293sieSTAT3(wt) [4], 2.23.

In the case of `CCn1c(=O)c(-c2ccc(Cl)cc2Cl)cc2cnc(Nc3ccc(N4CCNCC4)c(F)c3)nc21` [FRAX486] (top concentration tested 5000 nM), the drug sensitivity score in the test on HEK293sieSTAT3(Y640F) [1] came out at 0; in the test on HEK293sieSTAT3(wt) [2], 6.75; in the test with HEK293sieSTAT3(Y640F) [3], 6.38; in the test on HEK293sieSTAT3(wt) [4], 9.57.

Take `O=S(=O)(c1cccc2cnccc12)N1CCCNCC1` [Fasudil] (top concentration tested 50000 nM): the drug sensitivity score is 2.11 with HEK293sieSTAT3(Y640F) [1], 4.45 in the test on HEK293sieSTAT3(wt) [2], 4.74 in the test on HEK293sieSTAT3(Y640F) [3] and 3.23 in the test on HEK293sieSTAT3(wt) [4].

Take `Cc1cnc(Nc2ccc(OCCN3CCCC3)cc2)nc1Nc1cccc(S(=O)(=O)NC(C)(C)C)c1` [Fedratinib] (top concentration tested 10000 nM): the drug sensitivity score is 5.36 in the test on HEK293sieSTAT3(Y640F) [1], 9.22 in the test with HEK293sieSTAT3(wt) [2], 7.35 in the test with HEK293sieSTAT3(Y640F) [3] and 8.5 with HEK293sieSTAT3(wt) [4].

As to `CON(C)C(=O)N1N=C(c2cc(F)ccc2F)S[C@@]1(CCCN)c1ccccc1` [Filanesib] (top concentration tested 1000 nM), the drug sensitivity score came out at 0.58 in the test on HEK293sieSTAT3(Y640F) [1], 17 in the test on HEK293sieSTAT3(wt) [2], 15 in the test on HEK293sieSTAT3(Y640F) [3] and 21.2 with HEK293sieSTAT3(wt) [4].

As for `O=C(Nc1nc2cccc(-c3ccc(CN4CCS(=O)(=O)CC4)cc3)n2n1)C1CC1` [Filgotinib] (top concentration tested 10000 nM), the drug sensitivity score is 5.91 in the test on HEK293sieSTAT3(Y640F) [1], 6.22 with HEK293sieSTAT3(wt) [2], 8.86 with HEK293sieSTAT3(Y640F) [3] and 6.84 with HEK293sieSTAT3(wt) [4].
